# Source: patent US20220064689A1, “AMPHOTERIC GLYCOLIPID BIOSURFACTANT AND ITS PREPARATION METHOD” (Mikros Biochem, priority 2020, published 2022)
# “And” between values parts separate entries of the source, which are not always exact repeats. Equal values may be shown once.
# Tests used:
# [1] = tested on: Candida albicans (ATCC 10231); experiment: Antibacterial analysis per national standard WS/T 650-2019, viable count over 28 days; format: cell-based; conditions: 4.0% (aqueous solution of surfactant, or 4.0% sodium benzoate comparative)
# Experimental: (§1) Using the protocol set out in the national standard test WS/T 650-2019 “Evaluation Method of Antibacterial and Antibacterial Effects”, the amphiphilic biosurfactant produced as described above was analysed for antibacterial effects.
# [2] = tested on: Staphylococcus aureus (ATCC 6538); experiment: as above; format: cell-based; conditions: 4.0% (aqueous solution of surfactant, or 4.0% sodium benzoate comparative)
# Experimental: as §1
compound,measurement,setting,value
O=C([O-])c1ccccc1.[Na+] [sodium benzoate],CFU/mL Candida albicans (ATCC 10231) Day 0,[1]; Day 0,4.0 × 10^5 CFU/mL
same,CFU/mL Candida albicans (ATCC 10231) Day 7,[1]; Day 7,3.4 × 10^2 CFU/mL
same,CFU/mL Candida albicans (ATCC 10231) Day 14,[1]; Day 14,3.0 × 10^1 CFU/mL
same,CFU/mL Candida albicans (ATCC 10231) Day 21,[1]; Day 21,<10 CFU/mL
same,CFU/mL Candida albicans (ATCC 10231) Day 28,[1]; Day 28,<10 CFU/mL
same,CFU/mL Staphylococcus aureus (ATCC 6538) Day 0,[2]; Day 0,5.0 × 10^6 CFU/mL and 5.2 × 10^6 CFU/mL
same,CFU/mL Staphylococcus aureus (ATCC 6538) Day 14,[2]; Day 14,8.7 × 10^1 CFU/mL
same,CFU/mL Staphylococcus aureus (ATCC 6538) Day 21,[2]; Day 21,<10 CFU/mL
